The text below walks through data of patent US11980598B2, “N-(2-(substituted-naphth-1-yl)ethyl) substituted amide compound, preparation and uses thereof” (BEIJING GREATWAY PHARMACEUTICAL TECHNOLOGY CO., LTD., priority 2017, dated 2024).

Data set [1] is described as follows: In vitro metabolism study, human liver microsomal incubation system. Type of data set: in vitro ADME. As for the experimental part: TSQ Quantum liquid chromatography-mass spectrometer (LC/MS/MS) from Finnigan Inc, USA, chromatography column: TSKgel Amide-80 column (2.0 mm I.D.×100 mm, 5 μm); mobile phase: acetonitrile-water-formic acid (50:50:0.1); flow rate: 0.2 mL/min; injection volume: 5 μL; column temperature: room temperature. Ionization source is electrospray ionization (ESI) with 4.8 KV of spray voltage; capillary temperature (TEM): 300° C.; sheath gas: N2, flow rate: 10 psi; auxiliary gas: N2, flow rate: 1 psi; collision gas (CID): Ar at a pressure of 1.5 mTorr. The mass spectrometry scanning method was selective reaction monitoring (SRM) and detected by positive ion method. The internal standard was a […] solution of aconitine in acetonitrile, the minimum limit of quantification was 5 ng/mL, and the correlation coefficient was >0.99.
Approximately 10 mg of each sample to be tested was accurately weighed, dissolved in 0.1 mL of DMSO, and serially diluted with purified water to a 10 μM, 1 μM standard stock solution. An ice bath was operated and the incubation system for detection was formulated according to Table 4. NADPH was added to the incubation system to start the reaction, and then 50 μL was immediately added to 150 μL acetonitrile as a zero-time sample and a 1 μM standard curve sample. Another 1 μM standard stock solution was added to the incubation system, and then 50 μL was immediately added to 150 μL acetonitrile as a 0.1 μM standard curve sample. […] Each sample was shaken, and centrifuged at 18000 g for 10 min. The supernatant was taken for LC/MS/MS injection and determination.
Background: Liver microsomes are a subcellular fraction often used to study metabolism.

The subject of a further data set is SD rats. Put plainly: Forced rat swimming test. Type of data set: in vivo. The following applies: 10 mg/kg i.g., 3 days, last 5 of 6 min. As for the experimental part: (§1) Animals: Kunming mice, male, body weight 18-22 g, SPF grade; SD rats, male, body weight 150-180 g, SPF grade. The test was carried out after acclimatization, and the animal was fasted for 12 hours before the test.
(§2) All drugs for the test were suspended and dispersed in a 1% aqueous solution of hydroxypropyl methylcellulose (HPMC), and shaken well before use. […] The doses for administration were all 10 mg/kg. For the concentration and volume for administration, see J Psychiatry Neurosci 2004; 29(2):126-133. The mice were intraperitoneally administered in a volume of 0.5 mL/20 g; and the rats were administered by i.g. in a volume of 2 mL/100 g.
Rats were randomly divided into groups according to weight balance. Rats were administered by i.g. for three consecutive days, once a day. One hour after administration on the third day, the forced swimming test was performed. The rats were placed in a round glass jar with a height of 40 cm, an inner diameter of 18 cm, a water depth of 23 cm, and a water temperature of 25° C. The rats were allowed to swim for 6 minutes, and the accumulated immobility time in the last 5 minutes was recorded.

Data set [2] has as its system Kunming mice. Description: Tail suspension test (TST) in mice. The data set is classed as in vivo, mouse. The following applies: 10 mg/kg intraperitoneal, 3 days, last 4 of 6 min. As for the experimental part:
as §1, §2
Mice were randomly divided into groups according to weight balance. Intraperitoneal injection was administered for three consecutive days, once a day, and the tail suspension test were performed 30 minutes after the third day. The tail suspension box was 25×25×35 cm, and a small clip was connected with a rope at the center of the top plate. An adhesive tape was stuck to the tail of the mouse 2 cm away from the tail end, and the adhesive tape was clamped with the clip to make the mouse in an inverted position. The duration of immobility was recorded during the last 4 minutes of total 6 minutes observed.

The test system of data set [3] is Kunming mice. Description: Forced mouse swimming test. The data set is classed as in vivo. The following applies: 10 mg/kg intraperitoneal, 3 days, last 4 of 6 min. As for the experimental part:
as §1, §2
Animal grouping and administration method were the same as those in the tail suspension test in mice. The mice were placed in a round glass vessel with a height of 20 cm, an inner diameter of 12 cm, a water depth of 10 cm and a water temperature of 25° C.

Data set [4] addresses human MT2 receptor membrane protein (Homo sapiens (Human), UniProt P49286). Description: MT2 receptor binding test ([3H]-Melotonin competition). The following applies: for MT2 binding ratio (I %): prescreening, 10^−5 M. As to the method:
(§3) The receptors included a MT1/MT2 receptor and a 5-HT2C receptor. The test was divided into two parts: prescreening and rescreening. The results of prescreening were expressed as the percentage of binding, and the results of rescreening were expressed as the IC50 value (in M, i.e., mol/L).
(§4) (3) Tris-HCl buffer formulation: 50 mM Tris-HCl Buffer, 1 mM EDTA, 5 mM MgCl2, 0.1% NaN3, and then a certain proportion of PMSF was added to make pH 7.4.
(§5) (4) The example compound to be tested was dissolved in DMSO and formulated as a stock solution of 10^−2 M, and then diluted with distilled water to a concentration gradient of […]. The prescreening of the MT receptor binding test was performed at the concentration of 10^−5 M; the prescreening of the 5-HT2C receptor binding test was performed at the concentrations of 10^−5 and 10^−7 M.
(§6) The statistical analysis was performed using GraphPad Prism 5.0 software. The formula for receptor binding test was: inhibition (%)=[(total CPM of binding−CPM of tube with drug)/(total CPM of binding−non-specific CPM)]×100%, wherein CPM was count of a radioactive intensity.
(§7) 10 μL of receptor membrane protein MT1 or MT2 was added to all the tubes. In non-specific binding tubes, 50 μL of a corresponding unlabeled ligand Ago at a concentration of 10^4 M was added to a final concentration of 10 μM, and pre-reacted for 30 minutes. In test tubes, 30 μL of test drug (MT1: a concentration of 10^4-10^−10 M, MT2: a concentration of […]) was added, respectively; all tubes were added with 40 μL [^3H]-Melotonin, respectively. […] The filter paper was taken out and dried by baking, and then placed in a scintillation bottle. 1 mL of the scintillation liquid was added, and the radioactive intensity was measured by a liquid scintillation counter.

Data set [5] deals with human MT1 receptor membrane protein (Homo sapiens (Human), UniProt P48039). Put plainly: MT1 receptor binding test ([3H]-Melotonin competition). The following applies: for MT1 binding ratio (I %): prescreening, 10^−5 M. As to the method: as §3, §4, §5, §6, §7
Where [6] appears, read: incubation time 0 min, 1 μM, 1 mg/mL microsome, 37° C.

Sequence of human MT2 receptor membrane protein (P49286 whole entry): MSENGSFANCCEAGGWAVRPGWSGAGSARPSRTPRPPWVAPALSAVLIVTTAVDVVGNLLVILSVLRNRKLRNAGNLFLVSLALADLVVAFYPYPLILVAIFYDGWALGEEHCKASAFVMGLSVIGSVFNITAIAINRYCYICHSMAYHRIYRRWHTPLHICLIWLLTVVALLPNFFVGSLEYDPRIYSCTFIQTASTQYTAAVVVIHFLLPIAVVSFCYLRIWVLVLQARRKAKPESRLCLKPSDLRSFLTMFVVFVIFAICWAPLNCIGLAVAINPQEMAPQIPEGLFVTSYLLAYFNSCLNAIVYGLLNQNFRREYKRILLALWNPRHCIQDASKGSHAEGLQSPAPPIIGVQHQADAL
Sequence of human MT1 receptor membrane protein (P48039 whole entry): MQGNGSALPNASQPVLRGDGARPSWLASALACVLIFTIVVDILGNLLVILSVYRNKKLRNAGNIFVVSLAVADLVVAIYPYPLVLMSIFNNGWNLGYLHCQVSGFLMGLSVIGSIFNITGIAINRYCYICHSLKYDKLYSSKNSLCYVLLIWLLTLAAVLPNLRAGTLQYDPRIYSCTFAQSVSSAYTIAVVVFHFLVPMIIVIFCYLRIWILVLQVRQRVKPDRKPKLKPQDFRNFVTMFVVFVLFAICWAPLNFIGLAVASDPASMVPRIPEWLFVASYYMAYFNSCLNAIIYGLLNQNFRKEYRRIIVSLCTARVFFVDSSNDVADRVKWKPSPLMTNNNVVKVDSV

As to `COc1cc2c(CCNC(C)=O)cccc2cc1Cl` [Example 2, N-(2-(6-chloro-7-methoxy-naphthalen-1-yl)ethyl)acetamide], the entries for the “Concentration measured at incubation time point” value (shortened to “Concentration measured”) in data set [1] (setting [6]), in data set [1] (incubation time 5 min) and in data set [1] (incubation time 15 min) were 1000 ± 36 nM, 420 ± 79 nM and 39 ± 3 nM, respectively. The figures for the Immobility time in the data set with SD rats, in the data set on Kunming mice [2] and in the data set with Kunming mice [3] were 61.3 ± 29.8 s, 69.4 ± 23.3 s and 81.3 ± 20.3 s, respectively. Further, the “MT2 binding ratio (I %)” value in data set [4] is 78%. Further, in data set [5], the “MT1 binding ratio (I %)” value amounted to 84%.
`[2H]C([2H])([2H])Oc1cc2c(CCNC(C)=O)cccc2cc1F` [Example 3, N-(2-(6-fluoro-7-deuteromethoxy-naphthalen-1-yl)ethyl)acetamide] showed a melting point of 141 to 144 °C. Further, the “Concentration measured” value in data set [1] (setting [6]) came to 1000 ± 41 nM. The “Concentration measured” value in data set [1] (incubation time 5 min) was 395 ± 47 nM. For the same compound, in data set [1] (incubation time 15 min), the “Concentration measured” value was determined as 29 ± 2 nM. This compound displayed an Immobility time in the data set with SD rats of 76.1 ± 30.2 s. The compound further came in with an Immobility time in the data set on Kunming mice [2] of 77.7 ± 28.6 s. In the data set with Kunming mice [3], this compound displayed an Immobility time of 83.3 ± 30.7 s. Besides, in data set [4], the “MT2 binding ratio (I %)” value came to 57%. The “MT1 binding ratio (I %)” value in data set [5] was determined as 66%.
Consider `COc1cc2c(CCNC(C)=O)cccc2cc1F` [Example 4, N-(2-(6-fluoro-7-methoxy-naphthalen-1-yl)ethyl)acetamide], for which the melting point was in the range of 140 to 144 °C. The “Concentration measured” value in data set [1] (setting [6]) turned out to be 1001 ± 17 nM. Besides, the “Concentration measured” value in data set [1] (incubation time 5 min) is 601 ± 9 nM. Also, the “Concentration measured” value in data set [1] (incubation time 15 min) is 48 ± 3 nM. Moreover, in data set [1] (incubation time 30 min), the “Concentration measured” value is 11 ± 2 nM. Besides, in the data set on SD rats, the Immobility time is recorded as 71.4 ± 40.3 s. For the same compound, the Immobility time in the data set with Kunming mice [2] was determined as 76.6 ± 18.4 s. Moreover, the Immobility time in the data set on Kunming mice [3] was found to be 75.6 ± 26.7 s. Further, the “MT2 binding ratio (I %)” value in data set [4] is given as 84%. The same compound yielded an IC50 in data set [4] (rescreening) of 0.67 ± 0.08 nM. In data set [5], the “MT1 binding ratio (I %)” value is 77%. The compound also registered an IC50 in data set [5] (rescreening) of 0.23 ± 0.24 nM.
Take `[2H]C([2H])([2H])Oc1cc2c(CCNC(=O)CC)cccc2cc1Cl` [Example 5, N-(2-(6-chloro-7-deuteromethoxy-naphthalen-1-yl)ethyl)propanamide]: the “Concentration measured” value stood at 1000 ± 32 nM in data set [1] (setting [6]), 675 ± 44 nM in data set [1] (incubation time 5 min) and 116 ± 10 nM in data set [1] (incubation time 15 min). The Immobility time in the data set with SD rats is recorded as 66.2 ± 35.1 s; in the data set on Kunming mice [2], 68.8 ± 17.3 s; with Kunming mice [3] it was 96.4 ± 14.4 s. The “MT2 binding ratio (I %)” value in data set [4] was determined as 44%. Moreover, the “MT1 binding ratio (I %)” value in data set [5] is on record as 81%.
`CCC(=O)NCCc1cccc2cc(Cl)c(OC)cc12` [Example 6, N-(2-(6-chloro-7-methoxy-naphthalen-1-yl)ethyl)propanamide]: the figures for the “Concentration measured” value in data set [1] (setting [6]), in data set [1] (incubation time 5 min) and in data set [1] (incubation time 15 min) were 1000 ± 42 nM, 471 ± 51 nM and 56 ± 5 nM, respectively. Further, in data set [4], the “MT2 binding ratio (I %)” value was 36%. In addition, the “MT1 binding ratio (I %)” value in data set [5] was found to be 77%.
For the compound `CCC(=O)NCCc1cccc2cc(F)c(OC)cc12` [Example 7, N-(2-(6-fluoro-7-methoxy-naphthalen-1-yl)ethyl)propanamide], the “Concentration measured” value in data set [1] (setting [6]) is 1000 ± 35 nM; in data set [1] (incubation time 5 min) it was 505 ± 33 nM; in data set [1] (incubation time 15 min), 65 ± 7 nM. The “MT2 binding ratio (I %)” value in data set [4] turned out to be 69%. Moreover, in data set [5], the “MT1 binding ratio (I %)” value is 73%.
`[2H]C([2H])([2H])Oc1ccc2cccc(CCNC(C)=O)c2c1` [d3-Ago, d3-Agomelatine, reference compound]: the figures for the “Concentration measured” value in data set [1] (setting [6]), in data set [1] (incubation time 5 min) and in data set [1] (incubation time 15 min) were 999 ± 103 nM, 235 ± 22 nM and 4 ± 3 nM, respectively.

As usually defined, the melting point is the temperature, or range, at which the solid turns liquid. As usually defined, the IC50 is the concentration that gives 50% inhibition. High values mean lower potency, low ones higher potency.
